{
  "source": "patent US20210189330A1",
  "about": "“INDUCED TOTIPOTENT STEM CELLS AND METHODS FOR MAKING AND USING THE SAME” (THE J. DAVID GLADSTONE INSTITUTES, A TESTAMENTARY TRUST …, priority 2017, published 2021)",
  "system": "mEpiSCs",
  "assay": "mEpiSC conversion culture in first conversion media with Smad inhibitor",
  "type": "cell-based, mouse",
  "conditions": "1 μM on Day 0, 3 μM from Days 1-3; observed Conversion Day 1",
  "method": "Under the conditions tested, the conversion bias toward floating iBCs was less efficient; therefore, more cells were required than for the 3D hemispheres (discussed in example above) in order to observe or harvest iBCs. It is contemplated that optimization of timing and Smad inhibition may vary depending on the cell type used. […] Two phases of media were prepared and cells were fed from days 0-3 (“first conversion media”) and then days 4-7 (“second conversion media”), respectively.\nAt Conversion Day 0, approximately 14 hours after preparation of mEpiSCs for conversion, cells were observed as evenly dispersed, mostly single cells. The first conversion media was prepared using CTSFES media with Pen/Strep and 2-Mercaptoethanol described above as the base media and supplemented with BMP4 (10 ng/mL), SB431542 (1 μM on Day 0, 3 μM from Days 1-3), and AA (64 μg/mL). On Conversion Day 1, cells were observed growing with some cells remaining colony-like while others began to flatten at the edges. (FIG. 4). […] At approximately the same time each day, media was replaced and cells were incubated overnight at 37° C.",
  "data": [
    {"smiles": "NC(=O)c1ccc(-c2nc(-c3ccc4c(c3)OCO4)c(-c3ccccn3)[nH]2)cc1", "note": "[SB431542]", "values": [
      {"measurement": "toxicity to starting mEpiSCs", "result": "toxicity was also believed to be killing some cells"}
    ]}
  ]
}
